Assay results published in patent US6602910B2, “D-enantiomer of DFMO and methods of use therefor” (priority 2000, dated 2003).
Like-named read-outs stand apart in the source and are kept apart here.

Experiments:
[1] = Plasma levels in rats after single oral dose
[2] = rats, 200 mg/kg/day to 1.2 g/kg/day by intubation, up to eight weeks
Description: Twenty-four Long Evans pigmented rats (250-275 g) were acquired from Harlan Sprague Dawley (Indianapolis, Ind.) and thirty-six pigmented guinea pigs obtained from Kuiper Rabbit Ranch (Gary, Ind.) at an initial weight of 200-250 g and housed in University of Oklahoma Health Sciences Center animal facility. Subjects were housed under a 12:12 hr light dark cycle with free access to food and water with a room temperature controlled at 21° C.
Twenty-four animals were randomly placed into 8 groups of three subjects each. […] Four additional animals were randomly placed into 2 subsequent groups: 400 and 600 mg/kg/day by gavage twice a day (5 days/week) for 8 weeks. […] Weight measurements were taken daily (5 days/week) with assessment of auditory function performed at the conclusion of dosing.

MCF-7 human breast tumor = assay: MCF-7 human breast cancer xenograft model; format: in vivo, Nude mice; settings: 0.5% w/v in drinking water; for animals with partial tumor shrinkage: Day 90, eight animals per group; for mean partial tumor shrinkage: Day 90, in the animals with shrinkage; for tumor growth inhibition: Day 90, in the animals without shrinkage
Description: FIG. 11 Mean Tumor weight of MCF-7 human breast tumors in nude […].
Nude mice were implanted with the estrogen-dependent human breast tumor line, MCF-7 (ATCC #HTB22). […] The experiment was terminated on Day 90 (when control tumors had reached a size of 400 mg.). Mice were weighed twice weekly, and tumor measurements were taken by calipers twice weekly, starting at time of DFMO administration (Day 1). Tumor measurements were converted to mg tumor weight by the formula, L^2×W/2.

pigmented guinea pigs [3] = assay: General toxicity in guinea pigs (mortality, weight gain), daily ip injection; format: in vivo, guinea pig
Description: Daily weight measurements determined the injection volume.

pigmented guinea pigs [4] = test system: pigmented guinea pigs
Description: Auditory thresholds were assessed in the 0.5 g/kg and 1 g/kg/day subjects at day 45 of dosing while the 2 g/kg/day subjects were evaluated at 22 days of dosing. […] Daily weight measurements determined the injection volume. Assessment of auditory function occurred at the conclusion of dosing.
Injections, determined by daily weight measurements, were made ip daily for 45 days.
Continuous tones were used for eliciting CM. Tone bursts were used to elicit the CAP.

[5] = test system: hair cells of the basilar membrane; assay: Histology of Organ of Corti surface preparations (SDH staining, hair cell damage); settings: one guinea pig, 1 g/kg/day for 45 days; most apical 40% normal
Description: Surface preparations of the Organ of Corti were evaluated in a limited number of subjects. The animals were decapitated while deeply anesthetized after CAP and CM recording. Cochleae were removed immediately. Both the round and oval windows were opened and the apex of the cochlea was drilled open to facilitate perfusion. The cochleae were perfused with SDH (succinate dehydrogenase) incubative solution (0.05 M sodium succinate, 0.05 M phosphate buffer and 0.05% TetraNitro Blue Tetrazolium) and immersed in the solution for one h (37° C.). Then the cochleae were fixed with 10% formalin for at least 2 days. After fixation, the cochleae were decalcified in 10% EDTA solution (EthyleneDiamine Tetraacetic Acid) for 3 days or longer as needed. Cochlea microdissection was accomplished under a light microscope.
Locations along the surface of the basilar membrane were identified by percent distance from apex, and can be related to the physiological data because sound is encoded in a tonotopic fashion with the highest frequencies represented in the most basal portion of the cochlea.

tumor putrescine levels = settings: rat-tumor model, infusion; cited from earlier work
[6] = rat, in vivo, po, 200 mg/kg
[7] = test system: MCF-7, LNCaP, PC-3, HT-29 cancer cell lines; assay: Induction of apoptosis in cell lines (DNA fragmentation ELISA, Hoechst staining); format: cell-based, human; settings: DFMO forms at 1 and 10 uM
Description: Each of the three forms of DFMO were tested at two concentrations (1 and 10 uM). Adriamycin and calcium chloride were used as positive controls. Apoptosis was assayed using a multi-well plate DNA fragmentation assay according to the Cellular DNA Fragmentation ELISA kit (Boehringer Mannheim Biochemicals, Cat. #1585-045) and Hoechst staining.

In the case of `NCCCC(N)(C(=O)O)C(F)F` (racemic) [D,L-DFMO, 2-(Difluoromethyl)-DL-ornithine], the maximum plasma level ([1]; 400 mg/kg orally) is reported as 109 µg/mL, the weight change [2] is reported as “does not produce any significant weight change” and the “animals with partial tumor shrinkage” value (MCF-7 human breast tumor) is reported as “seven of eight”. The “mean partial tumor shrinkage” value (MCF-7 human breast tumor) was 60.4%, the tumor growth inhibition (MCF-7 human breast tumor) was 99.2% and the “systemic toxicity (growth rate)” value (pigmented guinea pigs [3]; 500 mg/kg/day ip, 45 days) was “no apparent signs of systemic toxicity”. The weight gain (pigmented guinea pigs [3]; 1 g/kg/day ip, 45 days) was “appear to diverge from the controls during the last 10 days”, the “subjects that did not survive” value (pigmented guinea pigs [3]; 1 g/kg/day ip, full 6 week dosing regimen) was “two of the five” and the weight gain (pigmented guinea pigs [3]; 2 g/kg/day ip, to day 22) was “effectively blocked”. For the same compound, the animals dying (pigmented guinea pigs [3]; 3 g/kg/day ip, within the first six days) was 100%, the “average loss of auditory sensitivity (CAP), 20 to 40 kHz” value (“average loss of auditory sensitivity” for short) (pigmented guinea pigs [4]; 500 mg/kg/day ip, day 45) was 7.1 dB and the “CAP threshold elevation, average” value (pigmented guinea pigs [4]; 500 mg/kg/day ip, day 45, all frequencies) was 9 dB. The “effect on CM sensitivity” value (pigmented guinea pigs [4]; 500 mg/kg/day to 2 g/kg/day ip) was “not effected”, the “average loss of auditory sensitivity” value (pigmented guinea pigs [4]; 1 g/kg/day ip, day 45) was 17 dB and the “CAP threshold average loss across all frequencies” value (pigmented guinea pigs [4]; 2 g/kg/day ip, 22 days) was 14 dB. For the same compound, the “average loss of auditory sensitivity” value (pigmented guinea pigs [4]; 2 g/kg/day ip, 22 days) was 30 dB, the “portion of basilar membrane showing hair cell damage” value [5] was 60% and the “decrease in tumor putrescine levels” value (tumor putrescine levels) was 90%.

With `NCCC[C@@](N)(C(=O)O)C(F)F` [D-DFMO, D enantiomer of difluoromethylornithine] the “animals with partial tumor shrinkage” value (MCF-7 human breast tumor) was “four of eight”, the “mean partial tumor shrinkage” value (MCF-7 human breast tumor) was 62.6% and the tumor growth inhibition (MCF-7 human breast tumor) was 84.7%. For the same compound, the toxic death (MCF-7 human breast tumor; eight animals per group) was “two animals experienced toxic death” and the plasma level [6] was 102 µg/mL.

In the case of `COc1cccc2c1C(=O)c1c(O)c3c(c(O)c1C2=O)C[C@@](O)(C(=O)CO)C[C@@H]3O[C@H]1C[C@H](N)[C@H](O)[C@H](C)O1` [adriamycin], the apoptosis and cytotoxicity [7] is reported as “cytotoxic as well as apoptotic”.

With (−)-4-difluoromethyl-ornithine [L-DFMO] the plasma level ([1]; 200 mg/kg orally, one to two hours) was 45 µg/mL, the “animals with partial tumor shrinkage” value (MCF-7 human breast tumor) was “seven of eight” and the “mean partial tumor shrinkage” value (MCF-7 human breast tumor) was 50.0%. For the same compound, the tumor growth inhibition (MCF-7 human breast tumor) was 5.5%.
